Measured values reported in US6753323B2, “Topical administration of amifostine and related compounds” (MedImmune Oncology, Inc., priority 1998, dated 2004).

Key:
bacteria, yeast and mold = test: USP 23 Antimicrobial Preservatives-Effectiveness test, overall; type: cell-based; conditions: each of the tested microorganisms, 28 day test
Method: WR-1065 was evaluated according to a protocol based on the “Antimicrobial Preservatives-Effectiveness” Test, outlined in the United States Pharmaeopeia, 23rd ed. (1995).
Prior to inoculation of the test article, a 1:10 dilution is prepared in diluent and 1.0 mL is plated. Additional serial dilutions are prepared and plated as necessary. Two separate sets are prepared as above. One set is prepared for bacteria counts, and one set is prepared for yeast/mold counts.
Enumeration of viable bacterial and fungal populations in the inoculated test article is conducted at 7, 14, 21 and 28 days post inoculation. At each time interval, a 1.0 g (or mL) specimen is removed from each inoculated specimen and plate counts are obtained by preparing serial dilutions in 9 mL tubes of diluent and plating aliquots from each dilution. Following incubation, plates are observed and the CFU's are enumerated. The number obtained is multiplied by the dilution factor to give the number of viable organisms per g (or mL) of test article at each time interval. At each time interval, the inoculated product is examined and any changes observed in the appearance of the test article during the challenge period are recorded. […]

hair matrix cells = conditions: topical 0.3 mg in 0.2 mL Ringer's solution on depilated mouse skin before fractionated irradiation; cited from earlier work
[1] = Solubility of WR-1065 salts in various solvents; type: physicochemical; conditions: Water
Method: As mentioned above, salts of amifostine and related compounds are included within the scope of the invention. […] Several salts of WR-1065 were prepared, and their solubility in various solvents was measured.

Row | Structure (SMILES) | preservative efficacy according to USP 23 criteria (bacteria, yeast and mold) | protection of hair matrix cells from radiation-induced injury (hair matrix cells) | Est. Solubitity HPLC Assay ([1]; as salt) [mg/mL] | Est. Solubitity HPLC Assay ([1]; expressed as free base) [mg/mL]
1 | NCCCNCCS [WR-1065, S-2-(3-aminopropylamino) ethanethiol] | effective preservative | some effectiveness |  | 
2 | Cl.Cl.NCCCNCCS [di-HCl] |  |  | 849 | 550
